Laboratory results from patent publication US20100069319A1, “Mercaptopurine derivatives and uses thereof” (priority 2007, published 2010).
Read-outs that look alike come from different tables or passages of the source.

Columns and labels:
[1] = system: Daudi cells; assay: XTT cell proliferation assay; type: cell-based; settings: 16 h
Method: (§1) Cell proliferation was determined by the XTT viability assay in 96-well plates, based on the reduction of tetrazolium salt to soluble formazan compounds by living cells. Cells (10,000-15,000 cells/well) were seeded in a 96-well plate. After 16 h incubation with various concentrations of 6-MP, 6-MPR and their S-allylthio-derivatives, 50 μl of XTT/PMS mixture (50 μM PMS, 0.1% XTT in medium) was added onto the cells. After an incubation period of 3-4 h at 37° C. the absorbance of the samples was measured in an ELISA Reader at 450 nm. SDS (1%, 10 μl/well) was added to reference wells before adding the XTT/PMS solution.
(§2) The inhibitory effects of the various prodrugs on Daudi leukemia cell and on monolayer N87 cells were compared. […] XTT was added to the wells for 3 h at 37° C. Cell viability was monitored using an ELISA reader at 450 nm, as described in Materials and Methods.

[2] = system: N87 cells; assay: XTT cell proliferation assay; type: cell-based, human; settings: 16 h
Method: as §1, §2

[3] = system: HL-60; assay: Anti-proliferative concentration IC50 (Table 2); type: cell-based, human; settings: HL-60, 16 h, tested at 0-100 μM, read-out: Anti-proferative concentration - IC50 (mean ± SE)
Method: as §1
(§3) The results of viability and proliferation were expressed as mean values±SD (n=3-6). For each cell line, the results were analyzed using two-way analysis of variance (ANOVA) followed by Bonferroni's posttest for the factors of the drugs used and their various concentrations, considering p<0.05 as significant. IC50 values (mean±SEM) were obtained from the linear range of the viability curve versus drug concentration (XTT assay).
(§4) In particular, cell in suspension, namely, Daudi, HL-60, U937, Molt-4, Jurkat and B-CLL, were tested at prodrug concentration of 0-100 μM, and monolayer cells, namely, Hela HtTA-1, MDR HT-29 and N87, were tested at prodrug concentration of 0-200 μM. in both cases, cell viability was determined by trypan blue dye exclusion assay. Data are presented in Table 2 hereinbelow for 6MP derivatives-treated for 16 h.

[4] = system: Hela; assay: Anti-proliferative concentration IC50 (Table 2); type: cell-based, human; settings: 16 h, tested at 0-200 μM, read-out: Anti-proferative concentration - IC50 (mean ± SE)
Method: as §1, §3, §4

[5] = system: Jurkat; assay: Anti-proliferative concentration IC50 (Table 2); type: cell-based, human; settings: 16 h, tested at 0-100 μM, read-out: Anti-proferative concentration - IC50 (mean ± SE)
Method: as §1, §3, §4

[6] = system: MDR HT-29; assay: Anti-proliferative concentration IC50 (Table 2); type: cell-based, human; settings: MDR HT-29, 16 h, tested at 0-200 μM, read-out: Anti-proferative concentration - IC50 (mean ± SE)
Method: as §1, §3, §4

[7] = system: N87; assay: Anti-proliferative concentration IC50 (Table 2); type: cell-based, human; settings: N87, 16 h, tested at 0-200 μM, read-out: Anti-proferative concentration - IC50 (mean ± SE)
Method: as §1, §3, §4

[8] = system: U937; assay: Anti-proliferative concentration IC50 (Table 2); type: cell-based, human; settings: U937, 16 h, tested at 0-100 μM, read-out: Anti-proferative concentration - IC50 (mean ± SE)
Method: as §1, §3, §4

[9] = system: Daudi; assay: Anti-proliferative concentration IC50 (Table 2); type: cell-based; settings: 16 h, tested at 0-100 μM, read-out: Anti-proferative concentration - IC50 (mean ± SE)
Method: as §1, §3, §4

[10] = system: Molt-4; assay: Anti-proliferative concentration IC50 (Table 2); type: cell-based; settings: Molt-4, 16 h, tested at 0-100 μM, read-out: Anti-proferative concentration - IC50 (mean ± SE)
Method: as §1, §3, §4

[11] = system: B-CLL cells; settings: 48 h, read-out: calculated IC50 for allicin induced-apoptosis; cited from earlier work
[12] = system: human peripheral blood mononuclear cells (PBMCs); settings: after 4 days of treatment, read-out: IC50, T-cell mitogen-induced blastogenesis; cited from earlier work

For C=CCSSc1ncnc2c1ncn2[C@@H]1O[C@H](CO)[C@@H](O)[C@H]1O [SA-6MPR, S-allylthio-6-mercaptopurine 9-riboside], the residual proliferation ([1]; 50 μM) was 60%, the residual proliferation ([1]; 100 μM) was 25% and the “residual proliferation / viability” value ([2]; N87, 50 μM) was “about 70%”. For the same compound, the residual viability ([2]; N87, 100 μM) was about 55%, the “proliferation” value ([2]; N87, 150 μM) was “complete loss of proliferation” and the IC50 [3] was 86.1 ± 9.5 µM. The IC50 [4] was over 200 µM, the IC50 [5] was 69.1 ± 7.5 µM and the IC50 [6] was over 200 µM. It also gave an IC50 [7] of 120 ± 15.6 µM, an IC50 [8] of 113 ± 10.9 µM and an IC50 [9] of 70.8 ± 7.8 µM. It also gave an IC50 [10] of 16.9 ± 2.3 µM.
Compound C=CCS[S+]([O-])CC=C (stereo not drawn) [Allicin, reference compound] has an IC50 ([3]; Homo sapiens) of 5.5 ± 0.6 µM, an IC50 ([4]; Homo sapiens) of 104 ± 10.2 µM and an IC50 ([6]; Homo sapiens) of 83.8 ± 7.8 µM. The IC50 ([7]; Homo sapiens) was 16.8 ± 3.3 µM, the IC50 ([8]; Homo sapiens, U-937) was 19.7 ± 2.1 µM and the IC50 ([9]; Homo sapiens) was 35.3 ± 4.2 µM. The IC50 [11] was 0.02 µM.
With OC[C@H]1O[C@@H](n2cnc3c(S)ncnc32)[C@H](O)[C@@H]1O [6-MPR, 6-mercaptopurine riboside, reference compound] the “cell proliferation” value ([1]; 0-100 μM) was “no significant loss of cell proliferation”, the “cell proliferation” value ([2]; N87, 0-100 μM) was “no significant loss of cell proliferation” and the “proliferation (residual)” value ([2]; N87, 150 μM) was about 75%. For the same compound, the IC50 ([5]; Homo sapiens) was 99 ± 11.9 µM, the IC50 ([8]; Homo sapiens, U-937) was over 200 µM and the IC50 ([10]; Homo sapiens) was 24.8 ± 2.5 µM.
In the case of Cn1cnc([N+](=O)[O-])c1Sc1ncnc2nc[nH]c12 [AZ, azathioprine], the IC50 [12] is listed as 0.23 ± 0.231 µM.
